Values quoted from earlier work in patent publication US20230233697A1, “CYTOTOXIC BENZODIAZEPINE DERIVATIVES” (priority 2014, published 2023).

Conditions: Phase I clinical evaluation; cited from earlier work

C=C1C[C@H]2C=Nc3cc(OCCCOc4cc5c(cc4OC)C(=O)N4CC(=C)C[C@H]4C=N5)c(OC)cc3C(=O)N2C1 [SJG-136]
maximum tolerated dose: 45 μg/m^2
